Measured values taken from patent publication US7326384B2, “Method and apparatus for detecting physicochemical changes emitted by biological sample” (Matsushita Electric Industrial Co., Ltd., priority 2001, dated 2008).

Experiments:
[1] = tested on: ion channel of a Lymnaea stagnail neuron; test: Extracellular recording of neuron electrical signal at increasing Carbachol concentrations (apparatus of FIG. 8); format: cell-based; details: Carbachol 0, 0.1, 0.3, 1, 3, 10, 30 and 100 μM; 10 seconds time-series data; FIG. 12
Excerpt: FIG. 8 is a conceptual diagram showing a configuration of an apparatus comprising the above-described device for detecting physicochemical changes emitted by a biological sample, which is configured to measure and extract the ion channel activity of the biological sample. The apparatus comprises a measurement section (signal source) 101 comprising a device for detecting physicochemical changes emitted by the biological sample and measuring an action potential generated by a neuron, a unit standard deviation calculation section 102 for sampling a signal from the measurement section 101 and calculating the standard deviation of the signal, an average calculation section 105 for calculating the average of the obtained standard deviation, an activity calculation section 108 for calculating the ion channel activity of a cell from the average of the standard deviation output by the average calculation section 105, and a data displaying section 110 for displaying the calculated activity. Communications between each section are indicated by a dashed line or a solid line in FIG. 8. Note that the unit standard deviation calculation section 102, and the average calculation section 105, and the activity calculation section 108 may be representatively software programs which are recorded in a hard disk in a computer. The data displaying section 110 may be a CRT. […]

[2] = tested on: ion channel of a Lymnaea stagnail neuron; test: Extracellular recording of neuron before and after applying Carbachol, normal distribution of standard deviations (apparatus of FIG. 9); format: cell-based; details: after applying 50 μM Carbachol; 10 seconds data; FIG. 13
Excerpt: FIG. 9 is a conceptual diagram showing a configuration of an apparatus comprising the above-described device for detecting physicochemical changes emitted by a biological sample, which is configured to measure and extract the ion channel activity of the biological sample. The apparatus is the same as the apparatus of FIG. 8, except that the normal distribution approximation section 103, the average/half-width calculation section 106 and the activity categorization section 109 are employed in place of the average calculation section 105 and the activity calculation section 108. Communications between each section are indicated by a dashed line or a solid line in FIG. 9. […]
Before and after 50 μM-concentration Carbachol is applied to a Lymnaea stagnail neuron, signals were obtained from the measurement section (signal source) 101, and the standard deviation of the signals was calculated in a manner similar to that of Example 1. […]

SMILES: C[N+](C)(C)CCOC(N)=O [Carbachol]
- ion channel activation (average of the standard deviation every 100 miliseconds) [1]: activated depending on the Carbachol concentration
- average of the normal distribution of standard deviation values every 5 miliseconds [2]: 0.703
